Laboratory results published in BindingDB's records for patent US11964973 (Bristol-Myers Squibb, 2024).

Legend:
[1] = target: Diacylglycerol kinase alpha (Homo sapiens, UniProt P23743); test: In Vitro DGK Inhibition Assay
Method: (§1) The DGKα and DGKζ reactions were performed using either extruded liposome (DGKα and DGKζ LIPGLO assays). […] Luminescence was recorded using an EnVision microplate reader.

[2] = target: Diacylglycerol kinase zeta (Homo sapiens, UniProt Q13574); test: In Vitro DGK Inhibition Assay
Method: as §1

Chain of Diacylglycerol kinase zeta (Q13574 as listed by the source): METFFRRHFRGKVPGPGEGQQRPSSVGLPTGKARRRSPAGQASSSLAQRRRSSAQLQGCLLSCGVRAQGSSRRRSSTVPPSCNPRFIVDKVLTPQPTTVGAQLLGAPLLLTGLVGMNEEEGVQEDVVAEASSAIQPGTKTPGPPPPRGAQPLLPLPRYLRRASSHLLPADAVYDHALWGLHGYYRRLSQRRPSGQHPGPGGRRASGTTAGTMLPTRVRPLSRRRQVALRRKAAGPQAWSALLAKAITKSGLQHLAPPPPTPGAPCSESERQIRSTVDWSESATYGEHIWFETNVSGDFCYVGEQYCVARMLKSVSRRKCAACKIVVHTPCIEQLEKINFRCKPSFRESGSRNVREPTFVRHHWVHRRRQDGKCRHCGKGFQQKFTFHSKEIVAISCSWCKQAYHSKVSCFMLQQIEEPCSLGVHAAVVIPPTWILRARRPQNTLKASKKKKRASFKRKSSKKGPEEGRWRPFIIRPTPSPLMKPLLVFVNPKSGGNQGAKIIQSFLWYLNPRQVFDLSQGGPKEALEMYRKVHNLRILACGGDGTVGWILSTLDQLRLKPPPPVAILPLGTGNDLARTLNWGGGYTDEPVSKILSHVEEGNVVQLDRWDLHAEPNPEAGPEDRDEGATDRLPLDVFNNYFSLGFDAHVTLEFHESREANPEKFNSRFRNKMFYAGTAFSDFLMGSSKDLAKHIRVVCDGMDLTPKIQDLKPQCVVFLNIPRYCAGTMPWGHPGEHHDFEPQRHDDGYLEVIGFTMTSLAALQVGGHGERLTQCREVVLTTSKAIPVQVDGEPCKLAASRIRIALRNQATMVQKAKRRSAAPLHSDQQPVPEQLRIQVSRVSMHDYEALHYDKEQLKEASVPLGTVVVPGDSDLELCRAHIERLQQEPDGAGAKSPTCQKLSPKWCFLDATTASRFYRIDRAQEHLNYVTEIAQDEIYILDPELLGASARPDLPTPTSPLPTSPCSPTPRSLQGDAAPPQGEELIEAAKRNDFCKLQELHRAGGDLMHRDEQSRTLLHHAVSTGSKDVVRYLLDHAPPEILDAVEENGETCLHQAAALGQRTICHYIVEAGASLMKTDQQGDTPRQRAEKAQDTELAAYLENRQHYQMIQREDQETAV
Chain of Diacylglycerol kinase alpha (P23743 whole entry): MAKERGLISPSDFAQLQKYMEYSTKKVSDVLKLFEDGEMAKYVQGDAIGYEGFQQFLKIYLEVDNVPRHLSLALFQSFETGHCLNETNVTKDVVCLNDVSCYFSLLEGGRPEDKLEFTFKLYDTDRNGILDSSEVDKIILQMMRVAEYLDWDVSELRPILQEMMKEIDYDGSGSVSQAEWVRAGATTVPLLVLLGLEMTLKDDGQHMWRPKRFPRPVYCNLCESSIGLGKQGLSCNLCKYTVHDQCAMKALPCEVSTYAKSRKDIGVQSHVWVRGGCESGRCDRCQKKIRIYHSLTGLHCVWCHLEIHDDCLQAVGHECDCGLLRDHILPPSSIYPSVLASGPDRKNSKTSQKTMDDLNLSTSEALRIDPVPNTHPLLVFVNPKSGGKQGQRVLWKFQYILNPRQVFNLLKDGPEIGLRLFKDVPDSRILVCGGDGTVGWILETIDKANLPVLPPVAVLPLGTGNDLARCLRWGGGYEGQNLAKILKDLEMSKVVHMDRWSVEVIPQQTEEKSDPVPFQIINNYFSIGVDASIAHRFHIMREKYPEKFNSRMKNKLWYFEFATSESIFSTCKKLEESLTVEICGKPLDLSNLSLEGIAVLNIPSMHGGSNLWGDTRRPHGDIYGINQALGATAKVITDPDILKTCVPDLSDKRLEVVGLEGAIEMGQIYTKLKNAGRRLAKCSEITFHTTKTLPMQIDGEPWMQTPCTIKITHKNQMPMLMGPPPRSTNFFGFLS

Cn1c(=O)cc(N2CCC(Oc3ccc(C(C)(C)C)cc3)CC2)c2cc(C#N)ccc21 [US11964973, Example 53]
IC50 [1]: 770 nM
IC50 [2]: 2000 nM

CCO[C@H]1CN(c2cc(=O)n(C)c3ccc(C#N)nc23)CC[C@@H]1Oc1ccc(OC(C)C)cn1 (relative stereo) [US11964973, Example 397]
IC50 [2]: 420 nM
